Values quoted from earlier work, collected in patent publication EP1033131B1, “Composition in the form of a drink having a delayed alcohol aversion effect” (Semenov, Sergei Petrovich, priority 1997, dated 1999).

What was measured:
Ratten = conditions: in vivo
[1] = in vivo
[2] = for Anregungseffekt der Alkoholwirkung / alkoholische Anregung: result in words
Cholinesterase = conditions: factor of reduction

| Compound | Verlaufsschwere des Alkoholentzugssyndroms (Ratten) | Dauer des narkotischen Effekts des Alkohols [1] | Anregungseffekt der Alkoholwirkung / alkoholische Anregung [2] | further results |
| --- | --- | --- | --- | --- |
| 2,6-Diethylester der Ascorbinsäure | vermindert | vermindert |  | Stärke der alkoholischen Anregung, vermindert mit dem Quotienten ([2]; factor of reduction): 4; Eintreten der Anregungsphase ([2]; in vivo): verlangsamt; Dauer der alkoholischen Anregung, vermindert um ([2]; percent reduction): 25% |
| CCOC1=C(OCC)C(C(O)CO)OC1=O (centres unmarked) [2,3-Diethylester der Ascorbinsäure] | vermindert |  | beeinflusst |  |
| CCOC(=O)C(O)=C(O)C(O)C(O)CO (centres unmarked) [1-Ethylester der Ascorbinsäure] |  |  | vermindern | Aktivität der Cholinesterase, vermindert mit dem Quotienten (Cholinesterase): > 2; Zeitraum der Anregung, verkürzt mit dem Quotienten ([2]; factor of shortening): 2 |
| 3,6-Diethylester der Ascorbinsäure |  | vermindert |  |  |
